Source: US20240115654A1, “INTRAVENOUS ADMINISTRATION OF ENGINEERED ANTIMICROBIAL AMPHIPHILIC PEPTIDES” (priority 2021, published 2024)
Like-named read-outs stand apart in the source and are kept apart here. Peptide text beside a SMILES is read from it.

From the text: All subjects who met eligibility criteria were confined to the clinical research unit from […] through Day 3. At admission, physical examination, vital signs, 12 lead ECG and weight were obtained, medical and medication history were updated if necessary, safety blood tests (hematology and chemistry), urinalysis, urine drug screen and an alcohol breath test were repeated and a urine pregnancy test was done for women of childbearing potential.
At each dose level, there were 2 sentinel subjects, (1 active, 1 placebo), who were dosed at least 48 hours in advance of the other subjects in their respective group. Following review of safety data, including physical examination, vital signs, and review of adverse events from the first 2 subjects, enrolment in the cohort continued.
A 12-lead ECG was performed on Day 1, within 60 minutes of infusion start (in triplicate), mid-way through the infusion, at the completion of the infusion, 30 minutes after completion of the infusion and at various timepoints following the end of the infusion.
Vital signs were recorded within 60 minutes pre-dose, at the mid-point of the infusion and post dose vitals were assessed at completion of the infusion, 0.5, 1, 2, 3, 4, 6, 9, 12, 24 and 48 hours post dose, after at least 3 minutes of rest in supine position.
Subjects returned to the study center 7 days after dosing, for the termination visit. A full physical examination, vital signs and weight were obtained, concomitant medications were updated if necessary, safety blood specimens (haematology and chemistry, PT and aPTT) and urine were collected for urinalysis and urine drug screening. A serum pregnancy test was done for women of childbearing potential and a 12-lead ECG was performed.
In this study dose limiting toxicity (DLT) was defined as any drug related ≥Grade 3 AEs occurring despite optimal therapeutic interventions (which included but were not limited to allergic/hypersensitivity reactions, dermatological reactions/infusion site reactions, haematological toxicities such as neutropenia, thrombocytopenia and anaemia and clinical chemistry abnormalities) experienced up to Day 7 (Termination Visit).
(§1) All subjects who received any amount of study drug were included in the safety analysis (Safety population).
The study was a double blinded, randomized, placebo-controlled study. The placebo administered was 0.9% sodium chloride.
On Day 1 (day of dosing), subjects were randomly assigned either peptide IV or Placebo IV. At each dose level, there were 2 sentinel subjects, (1 active, 1 placebo), who were dosed at least 48 hours in advance of the other subjects in their respective group. Following review of safety data, including physical examination, vital signs, and review of adverse events from the first 2 subjects, enrolment in the cohort continued. All subjects who met eligibility criteria were confined to the clinical research unit from Day −2 through Day 3. At admission, physical examination, vital signs, 12 lead ECG and weight were obtained, medical and medication history were updated if necessary, safety blood tests (hematology and chemistry), urinalysis, urine drug screen and an alcohol breath test were repeated and a urine pregnancy test was done for women of childbearing potential.
as §1

[1] = 0.05 mg/kg IV 1 hr infusion (N = 6)
[2] = 0.5 mg/kg IV 2 hr infusion (N = 6)
[3] = Cohort 1: 0.05 mg/kg IV 1-hr infusion (N = 6)

## CC(C)[C@H](NC(=O)[C@H](Cc1c[nH]c2ccccc12)NC(=O)[C@H](CCCNC(=N)N)NC(=O)[C@H](CCCNC(=N)N)NC(=O)[C@@H](NC(=O)[C@@H](NC(=O)[C@H](CCCNC(=N)N)NC(=O)[C@@H](NC(=O)[C@@H](NC(=O)[C@H](CCCNC(=N)N)NC(=O)[C@H](CCCNC(=N)N)NC(=O)[C@H](Cc1c[nH]c2ccccc12)NC(=O)[C@@H](NC(=O)[C@H](CCCNC(=N)N)NC(=O)[C@H](CCCNC(=N)N)NC(=O)[C@@H](NC(=O)[C@H](CCCNC(=N)N)NC(=O)[C@H](CCCNC(=N)N)NC(=O)[C@@H](NC(=O)[C@H](Cc1c[nH]c2ccccc12)NC(=O)[C@H](CCCNC(=N)N)NC(=O)[C@@H](N)CCCNC(=N)N)C(C)C)C(C)C)C(C)C)C(C)C)C(C)C)C(C)C)C(C)C)C(=O)N[C@@H](CCCNC(=N)N)C(=O)N[C@@H](CCCNC(=N)N)C(N)=O [SEQ ID NO: 1] (H-RRWVRRVRRVWRRVVRVVRRWVRR-NH2)
[1]
  Related TEAE Abdominal [?], n participants: 0
  Related TEAE Blood and lymphatic system disorders, n participants: 0
  Related TEAE Co[?], n participants: 0
  Related TEAE D[?] (r32, GI SOC), n participants: 0
  Related TEAE F[?], n participants: 0
  Related TEAE Gastrointestinal disorders, n participants: 0
  Related TEAE In[?] related reaction, n participants: 0
  Related TEAE Infusion [?] reaction, n participants: 0
  Related TEAE Injury, poi[?] procedural complications, n participants: 0
  Related TEAE M[?] and connective tissure disorders, n participants: 0
  Related TEAE Myalgia, n participants: 0
  Related TEAE Nervous system disorders, n participants: 0
  Related TEAE O[?] (r25, vascular SOC), n participants: 0
  Related TEAE O[?] (r38, respiratory SOC), n participants: 0
  Related TEAE P[?] (r26, vascular SOC), n participants: 0
  Related TEAE Pain in extremity, n participants: 0
  Related TEAE Respiratory, thoracic and m[?] disorders, n participants: 0
  Related TEAE T[?], n participants: 0
  Related TEAE Vascular disorders, n participants: 0
  Related TEAE Ve[?], n participants: 0
  Related TEAE [?] headache, n participants: 0
  TEAE A[?] (r19, skin SOC), n participants: 0
  TEAE A[?] (r46, GI SOC), n participants: 0
  TEAE Back pain, n participants: 0
  TEAE Blood and lymphatic system disorders, n participants: 0
  TEAE Constipation, n participants: 0
  TEAE D[?] (r54), n participants: 0
  TEAE D[?] contact, n participants: 0
  TEAE Dia[?], n participants: 0
  TEAE Headache, n participants: 0
  TEAE In[?] (r53), n participants: 0
  TEAE Injury, [?] and procedural complications, % participants: 50.0%
  TEAE Injury, [?] and procedural complications, M occurrences: 3
  TEAE Injury, [?] and procedural complications, n participants: 3
  TEAE Mu[?], n participants: 0
  TEAE Musculoskeletal and connective tissue disorders, n participants: 0
  TEAE My[?], n participants: 0
  TEAE O[?] (r37, vascular SOC), n participants: 0
  TEAE O[?] pain, n participants: 0
  TEAE Pain [?], n participants: 0
  TEAE Participants with at least one [?], M occurrences: 7
  TEAE Participants with at least one [?], n participants: 5
  TEAE R[?] (r20, skin SOC), n participants: 0
  TEAE Respiratory, thoracic and [?] disorders, n participants: 0
  TEAE Severity Grade 1, occurrences (M): 7
  TEAE Severity Grade 1, participants %: 83.3%
  TEAE Severity Grade 1, participants n: 5
  TEAE Severity Grade 2, participants n: 0
  TEAE Skin and [?] tissue [?], n participants: 0
  TEAE Skin reaction, n participants: 0
  TEAE Thermal [?], n participants: 0
  TEAE V[?] (r24, general SOC), n participants: 0
  TEAE V[?] access [?] (r10), % participants: 50.0%
  TEAE V[?] access [?] (r10), M occurrences: 3
  TEAE V[?] access [?] (r10), n participants: 3
  TEAE V[?] puncture site [?] (r28), n participants: 0
  TEAE Vascular access site [?] (r11), n participants: 0
  TEAE Vascular access site [?] (r12), n participants: 0
  TEAE Vascular access site [?] (r15), n participants: 0
  TEAE Vascular disorders, n participants: 0
  TEAE [?] (r13, under Injury SOC), n participants: 0
  TEAE [?] (r25, general SOC), n participants: 0
  TEAE [?] (r26, general SOC), n participants: 0
  TEAE [?] (r38, vascular SOC), n participants: 0
  TEAE [?] (r39, vascular SOC), n participants: 0
  TEAE [?] (r44, nervous SOC), n participants: 0
  TEAE [?] (r52, blood SOC), n participants: 0
  TEAE, occurrences (M): 7
[2]
  Participants Reporting at least One TEAE, %: 100%
  Related TEAE Blood and lymphatic system disorders, n participants: 0
  Related TEAE Co[?], n participants: 0
  Related TEAE F[?], n participants: 0
  Related TEAE In[?] related reaction, n participants: 0
  Related TEAE Injury, poi[?] procedural complications, n participants: 0
  Related TEAE M[?] and connective tissure disorders, n participants: 0
  Related TEAE Myalgia, n participants: 0
  Related TEAE Nervous system disorders, n participants: 0
  Related TEAE O[?] (r25, vascular SOC), n participants: 0
  Related TEAE O[?] (r38, respiratory SOC), n participants: 0
  Related TEAE P[?] (r26, vascular SOC), n participants: 0
  Related TEAE Pain in extremity, n participants: 0
  Related TEAE Respiratory, thoracic and m[?] disorders, n participants: 0
  Related TEAE T[?], n participants: 0
  Related TEAE V[?] (r18), n participants: 0
  Related TEAE Vascular disorders, n participants: 0
  Related TEAE [?] headache, n participants: 0
  TEAE A[?] (r19, skin SOC), n participants: 0
  TEAE Abdominal pain, n participants: 0
  TEAE Blood and lymphatic system disorders, n participants: 0
  TEAE Constipation, n participants: 0
  TEAE D[?] contact, n participants: 0
  TEAE Dizziness, n participants: 0
  TEAE Gastrointestinal disorders, M occurrences: 2
  TEAE Gastrointestinal disorders, n participants: 1
  TEAE Injury, [?] and procedural complications, M occurrences: 4
  TEAE Injury, [?] and procedural complications, n participants: 3
  TEAE Mu[?], n participants: 0
  TEAE My[?], n participants: 0
  TEAE O[?] (r37, vascular SOC), n participants: 0
  TEAE O[?] pain, n participants: 0
  TEAE P[?] (r43, nervous SOC), n participants: 0
  TEAE Respiratory, thoracic and [?] disorders, n participants: 0
  TEAE Severity Grade 1, occurrences (M): 12
  TEAE Severity Grade 1, participants %: 100%
  TEAE Severity Grade 1, participants n: 6
  TEAE Severity Grade 2, occurrences (M): 3
  TEAE Severity Grade 2, participants n: 2
  TEAE Skin and [?] tissue [?], M occurrences: 3
  TEAE Skin and [?] tissue [?], n participants: 2
  TEAE Skin reaction, M occurrences: 2
  TEAE Skin reaction, n participants: 1
  TEAE Thermal [?], n participants: 0
  TEAE V[?] puncture site [?] (r27), n participants: 0
  TEAE V[?] puncture site [?] (r28), n participants: 0
  TEAE Vascular access site [?] (r15), n participants: 0
  TEAE Vascular disorders, n participants: 0
  TEAE [?] (r13, under Injury SOC), n participants: 0
  TEAE [?] (r26, general SOC), n participants: 0
  TEAE [?] (r38, vascular SOC), n participants: 0
  TEAE [?] (r39, vascular SOC), n participants: 0
  TEAE [?] (r44, nervous SOC), n participants: 0
  TEAE [?] (r52, blood SOC), n participants: 0
  TEAE, occurrences (M): 15
0.05 to 0.5 mg/kg, drug concentration below […] and rate of infusion below 25 mg/hr
  overall safety and tolerability: safe and well tolerated
[3]
  Number of Participants Reporting at least: Onc TEAE Leading to Study Withdrawal, n (%): 0
  Number of Participants Reporting at least: One Dose-Limiting Toxicity, n (%): 0
  Number of Participants Reporting at least: One Related TEAE, n (%): 1 (16.7%)
  Number of Participants Reporting at least: One Serious TEAE, n (%): 0
  Number of Participants Reporting at least: One TEAE Leading to Study Drug Discontinuation, n (%): 0
  Number of Participants Reporting at least: One TEAE with Common Terminology Criteria for Adverse Events (CTCAE) Toxicity ≥ Grade 3, n (%): 0
  Number of Participants Reporting at least: One TEAE, n (%): 5 (83.3%)
  One Related TEAE, m: 1
  One TEAE, m: 7
  Participants With At Least 1 TEAE, n (%): 5 (83.3%)
